Results taken from patent publication US12157730B2, “Heteroaryl derivative, method for producing same, and pharmaceutical composition comprising same as effective component” (VORONOI INC., priority 2019, dated 2024).

Target: T1, Ba/F3 cell EGFR Exon20 ins NPH (Homo sapiens, UniProt P00533, INS773NPH)
T1 construct: expressed in transfected cells; host or cells: Ba/F3
Assay: Ba/F3 cell proliferation suppression, EGFR Exon20 ins NPH
Assay type: cell-based
Settings: GI50 class; Ba/F3 cell line with NPH inserted at Exon20 of EGFR; 72 hours
Outline: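 Growth suppression determined as GI50 following 72 h exposure across 12 concentrations up to 50 um, with viability by luminescent ATP assay (CellTiter-Glo).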

`C=CC(=O)Nc1cc(Nc2cc(N3OCC[C@@H]3c3ccccc3)ncn2)c(OC)cc1N1C[C@H]2C[C@@H]1CO2` [Example 33, N-(2-((1R,4R)-2-oxa-5-azabicyclo [2.2.1]heptane-5-yl)-4-methoxy-5-((6((R)-3-phenylisoxazolidine-2-yl)pyrimidine-4-yl)amino)phenyl) acrylamide] was tested. Which “Ba/F3 (NPH) Activity” value did it give?
Its value is “A (GI50 < 50 nM)”.

`C=CC(=O)Nc1cc(Nc2cc(N3OCC[C@@H]3Cc3cccc(Cl)c3F)ncn2)c(OC)cc1N1CCC(N2C[C@@H]3C[C@H]2CO3)CC1` [compound 1022, N-(2-(4-((1S,4S)-2-oxa-5-azabicyclo [2.2.1]heptane-5-yl)piperidine-1-yl)-5-((6-((S)-3-(3-chloro-2-fluorobenzyl)isoxazolidine-2-yl)pyrimidine-4-yl)amino)-4-methoxyphenyl) acrylamide] was tested. Which “Ba/F3 (NPH) Activity” value did it give?
The value was “A (GI50 < 50 nM)”.

Which “Ba/F3 (NPH) Activity” value does the source give for `C=CC(=O)Nc1cc(Nc2cc(N3OCC[C@@H]3c3cccc(F)c3F)ncn2)c(OC)cc1N1CCC(N(C)C)CC1` [compound 926, N-(5-((6-((R)-3-(2,3-difluorophenyl)isoxazolidine-2-yl)pyrimidine-4-yl)amino)-2-(4-(dimethylamino)piperidine-1-yl)-4-methoxyphenyl) acrylamide] here?
The value was “A (GI50 < 50 nM)”.

For `C=CC(=O)Nc1cc(Nc2cc(N3OCC[C@@H]3Cc3ccccc3)ncn2)c(OC)cc1N(C)CCN(C)C` [compound 947, N-(5-((6-((S)-3-benzylisoxazolidine-2-yl)pyrimidine-4-yl)amino)-2-((2-(dimethylamino)ethyl)(methyl)amino)-4-methoxyphenyl) acrylamide], which “Ba/F3 (NPH) Activity” value is on record?
The value was “A (GI50 < 50 nM)”.

How did the “Ba/F3 (NPH) Activity” value turn out when `C=CC(=O)Nc1cc(Nc2cc(N3OCC[C@@H]3c3cccc(F)c3F)ncn2)c(OC)cc1N1CCC(N2CCN(C3CC3)CC2)CC1` [Example 127, N-(2-(4-(4-cyclopropylpiperazine-1-yl)piperidine-1-yl)-5-((6-((R)-3-(2,3-difluorophenyl)isoxazolidine-2-yl)pyrimidine-4-yl)amino)-4-methoxyphenyl) acrylamide] was run?
The value was “A (GI50 < 50 nM)”.

Which “Ba/F3 (NPH) Activity” value does the source give for `C=CC(=O)Nc1cc(Nc2cc(N3OCC[C@@H]3Cc3cccc(F)c3)ncn2)c(OC)cc1N1CCC(N2C[C@H]3C[C@@H]2CO3)CC1` [compound 998, N-(2-(4-((1R,4R)-2-oxa-5-azabicyclo [2.2.1]heptane-5-yl)piperidine-1-yl)-5-((6-((S)-3-(3-fluorobenzyl)isoxazolidine-2-yl)pyrimidine-4-yl)amino)-4-methoxyphenyl) acrylamide] here?
The value was “A (GI50 < 50 nM)”.

How did the “Ba/F3 (NPH) Activity” value turn out when `C=CC(=O)Nc1cc(Nc2cc(N3OCC[C@@H]3c3ccc(Cl)cc3)ncn2)c(OC)cc1N1CCC(N2CCN(CC)CC2)CC1` [Example 254, N-(5-((6-((R)-3-(4-chlorophenyl)isoxazolidine-2-yl)pyrimidine-4-yl)amino)-2-(4-(4-ethylpiperazine-1-yl)piperidine-1-yl)-4-methoxyphenyl) acrylamide] was run?
Its value is “A (GI50 < 50 nM)”.

With `C=CC(=O)Nc1cc(Nc2cc(N3OCC[C@@H]3c3ccc(Cl)c(F)c3)ncn2)c(OC)cc1N1CCN(C(C)=O)CC1` [compound 363, N-(2-(4-acetylpiperazine-1-yl)-5-((6-((R)-3-(4-chloro-3-fluorophenyl)isoxazolidine-2-yl)pyrimidine-4-yl)amino)-4-methoxyphenyl) acrylamide] as the compound, how does the “Ba/F3 (NPH) Activity” value read?
The value was “A (GI50 < 50 nM)”.

With `C=CC(=O)Nc1cc(Nc2cc(N3OCC[C@@H]3c3cccc(C#N)c3)ncn2)c(OC)cc1N1CCC(N2CCN(CCC)CC2)CC1` [compound 432, N-(5-((6-((R)-3-(3-cyanophenyl)isoxazolidine-2-yl)pyrimidine-4-yl)amino)-4-methoxy-2-(4-(4-propylpiperazine-1-yl)piperidine-1-yl)phenyl) acrylamide] as the compound, how does the “Ba/F3 (NPH) Activity” value read?
Its value is “A (GI50 < 50 nM)”.

Which “Ba/F3 (NPH) Activity” value does the source give for `C=CC(=O)Nc1cc(Nc2cc(N3OCC[C@@H]3c3ccc(Cl)cc3)ncn2)c(OC)cc1N1CCC(N2CCN(C3CC3)CC2)CC1` [Example 58, N-(5-((6-((R)-3-(4-chlorophenyl)isoxazolidine-2-yl)pyrimidine-4-yl)amino)-2-(4-(4-cyclopropylpiperazine-1-yl)piperidine-1-yl)-4-methoxyphenyl) acrylamide] here?
The value was “A (GI50 < 50 nM)”.

How did the “Ba/F3 (NPH) Activity” value turn out when `C=CC(=O)Nc1cc(Nc2cc(N3OCC[C@@H]3c3ccc(Cl)c(F)c3)ncn2)c(OC)cc1N1CCC(N2CCN(C(C)C)CC2)CC1` [compound 708, N-(5-((6-((R)-3-(4-chloro-3-fluorophenyl)isoxazolidine-2-yl)pyrimidine-4-yl)amino)-2-(4-(4-isopropylpiperazine-1-yl)piperidine-1-yl)-4-methoxyphenyl) acrylamide] was run?
Its value is “A (GI50 < 50 nM)”.

With `C=CC(=O)Nc1cc(Nc2cc(N3OCC[C@@H]3c3cccc(F)c3)ncn2)c(OC)cc1N1CCC(N(C)C)CC1` [Example 245, N-(2-(4-(dimethylamino)piperidine-1-yl)-5-((6-((R)-3-(3-fluorophenyl)isoxazolidine-2-yl)pyrimidine-4-yl)amino)-4-methoxyphenyl) acrylamide] as the compound, how does the “Ba/F3 (NPH) Activity” value read?
Its value is “A (GI50 < 50 nM)”.

Which “Ba/F3 (NPH) Activity” value does the source give for `C=CC(=O)Nc1cc(Nc2cc(N3OCC[C@@H]3c3cccc(C#N)c3)ncn2)c(OC)cc1N1CCC(N2CC[C@@H](N(C)C)C2)CC1` [compound 492, N-(5-((6-((R)-3-(3-cyanophenyl)isoxazolidine-2-yl)pyrimidine-4-yl)amino)-2-(4-((R)-3-(dimethylamino)pyrolidine-1-yl)piperidine-1-yl)-4-methoxyphenyl) acrylamide] here?
The value was “B (50 nM ≤ GI50 < 500 nM)”.

With `C=CC(=O)Nc1cc(Nc2cc(N3OCC[C@@H]3c3cccc(Cl)c3)ncn2)c(OC)cc1N1CCC(N2CCN(C3COC3)CC2)CC1` [Example 199, N-(5-((6-((R)-3-(3-chlorophenyl)isoxazolidine-2-yl)pyrimidine-4-yl)amino)-4-methoxy-2-(4-(4-(oxetane-3-yl)piperazine-1-yl)piperidine-1-yl)phenyl)acrylamide] as the compound, how does the “Ba/F3 (NPH) Activity” value read?
The value was “A (GI50 < 50 nM)”.

Which “Ba/F3 (NPH) Activity” value does the source give for `C=CC(=O)Nc1cc(Nc2cc(N3OCC[C@@H]3Cc3ccccc3)ncn2)c(OC)cc1N1CCN(CC)CC1` [compound 946, N-(5-((6-((S)-3-benzylisoxazolidine-2-yl)pyrimidine-4-yl)amino)-2-(4-ethylpiperazine-1-yl)-4-methoxyphenyl) acrylamide] here?
The value was “A (GI50 < 50 nM)”.

`C=CC(=O)Nc1cc(Nc2cc(N3OCC[C@@H]3c3cc(F)ccc3F)ncn2)c(OC)cc1N1CCC(N2C[C@H]3C[C@@H]2CO3)CC1` [Example 259, N-(2-(4-((1R,4R)-2-oxa-5-azabicyclo[2.2.1]heptane-5-yl)piperidine-1-yl)-5-((6-((R)-3-(2,5-difluorophenyl)isoxazolidine-2-yl)pyrimidine-4-yl)amino)-4-methoxyphenyl) acrylamide] was tested. Which “Ba/F3 (NPH) Activity” value did it give?
The value was “A (GI50 < 50 nM)”.

How did the “Ba/F3 (NPH) Activity” value turn out when `C=CC(=O)Nc1cc(Nc2cc(N3OCC[C@@H]3c3ccc(Cl)cc3)ncn2)c(OC)cc1N1CCC(N2CCN(C(C)C)CC2)CC1` [compound 807, N-(5-((6-((R)-3-(4-chlorophenyl)isoxazolidine-2-yl)pyrimidine-4-yl)amino)-2-(4-(4-isopropylpiperazine-1-yl)piperidine-1-yl)-4-methoxyphenyl) acrylamide] was run?
Its value is “A (GI50 < 50 nM)”.
